In article PMC11480411, “Mucosal sugars delineate pyrazine vs pyrazinone autoinducer signaling in Klebsiella oxytoca” (Nature Communications, 2024):
Values joined by “and” are separate entries in the source; they are usually repeats but may differ in a detail not shown here. Identical values can stand only once.

How the values were obtained:
[1] = tested on: 314-member panel of human G protein-coupled receptors (GPCRs); assay: PRESTO-Tango screen of 314-member human GPCR panel; type: cell-based; conditions: 100 µM, HTLA cells
Procedure: The PRESTO-Tango analyses were performed as previously published. Briefly, HTLA cells, a HEK293 cell line that stably expresses β-arrestin-TEV and tTA-Luciferase (a kind gift from Gilad Barnea, Brown University), were plated in 96-well tissue culture plates (Eppendorf) in DMEM containing 10% FBS and 1% Penicillin/Streptomycin. One day after plating (after reaching approximately 90% confluence), 200 ng per well GPCR-Tango plasmids[37] in 20 μL DMEM were individually mixed with 400 ng polyethylenimine (Polysciences) in an equal volume of DMEM and incubated for 20 min at room temperature before adding the transfection mixture to the HTLA cells. 16-24 h after transfection, medium was replaced with 180 μL fresh DMEM containing 1% Penicillin/Streptomycin and 10 mM HEPES and 20 μL of 3 or 3-Homo to reach a final concentration of 100 μM. Supernatants were aspirated 20 h after stimulation and 50 μl per well of Bright-Glo solution (Promega) diluted 20-fold with PBS containing 20 mM HEPES was added into each well. After 15 min incubation at room temperature, luminescence was quantified using a Spectramax i3x microplate reader (Molecular Devices). Activation fold for each sample was calculated by dividing relative luminescence units (RLU) for each condition by RLUs from PBS control. […]

HRH1 = molecular target: T1, HRH1 (Homo sapiens, UniProt P35367); assay: PRESTO-Tango GPCR screen and dose-response; type: cell-based; conditions: for GPCR activation (heatmap value): HRH1, 100 µM; for HRH1 dose-response raw reporter signal (Fig. 5b source data): replicate wells
T1 construct: expressed in transfected cells; host or cells: HTLA cells (HEK293 line stably expressing β-arrestin-TEV and tTA-Luciferase)
T1 sequence (P35367 whole entry): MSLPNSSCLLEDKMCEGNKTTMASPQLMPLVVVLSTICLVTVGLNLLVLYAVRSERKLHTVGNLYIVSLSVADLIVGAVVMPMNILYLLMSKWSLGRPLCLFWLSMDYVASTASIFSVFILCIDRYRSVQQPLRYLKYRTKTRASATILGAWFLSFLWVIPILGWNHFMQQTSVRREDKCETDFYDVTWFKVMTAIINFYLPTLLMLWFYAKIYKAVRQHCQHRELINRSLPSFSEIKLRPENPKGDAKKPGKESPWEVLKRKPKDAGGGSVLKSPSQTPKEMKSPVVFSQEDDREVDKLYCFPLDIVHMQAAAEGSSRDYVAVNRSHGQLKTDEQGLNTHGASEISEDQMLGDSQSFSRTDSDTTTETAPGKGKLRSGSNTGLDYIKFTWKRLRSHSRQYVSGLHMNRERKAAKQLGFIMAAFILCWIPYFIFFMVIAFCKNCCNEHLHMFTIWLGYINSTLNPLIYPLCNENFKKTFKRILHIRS
Outline: (§1)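 HEK293 HTLA line (stable β-arrestin-TEV, tTA-luciferase); receptor-Tango transient transfection, PEI; 20 h compound exposure at 100 μM final; luciferase luminescence; fold vs PBS. Dose curves 10^−4–10^−15 M.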

HRH3 = molecular target: T2, HRH3 (Homo sapiens, UniProt Q9Y5N1); assay: PRESTO-Tango GPCR screen and dose-response; type: cell-based; conditions: for GPCR activation (heatmap value): HRH3, 100 µM; for HRH3 dose-response raw reporter signal (Fig. 5b source data): replicate wells
T2 construct: expressed in transfected cells; host or cells: HTLA cells (HEK293 line stably expressing β-arrestin-TEV and tTA-Luciferase)
T2 sequence (Q9Y5N1 whole entry): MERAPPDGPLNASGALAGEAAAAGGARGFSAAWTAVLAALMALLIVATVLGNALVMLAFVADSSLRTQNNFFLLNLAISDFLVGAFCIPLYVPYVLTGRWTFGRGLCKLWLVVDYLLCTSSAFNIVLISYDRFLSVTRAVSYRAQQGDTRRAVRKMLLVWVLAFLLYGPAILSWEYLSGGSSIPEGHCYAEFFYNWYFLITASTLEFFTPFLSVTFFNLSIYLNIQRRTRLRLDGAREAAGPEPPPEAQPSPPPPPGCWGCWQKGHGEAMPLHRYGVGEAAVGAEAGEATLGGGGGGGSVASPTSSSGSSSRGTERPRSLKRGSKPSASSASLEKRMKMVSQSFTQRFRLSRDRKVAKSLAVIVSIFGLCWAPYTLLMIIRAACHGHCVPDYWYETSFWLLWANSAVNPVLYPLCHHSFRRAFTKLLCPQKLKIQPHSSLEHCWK
Outline: as §1

∆pyr K. oxytoca = assay: RNA-seq of compound-supplemented ∆pyr K. oxytoca; type: cell-based, Klebsiella oxytoca ATCC 8724; conditions: 10 µM
Procedure: A ∆pyr K. oxytoca glycerol stock was streaked onto an LB-Agar plate supplemented with spectinomycin (50 µg/mL) and incubated aerobically at 30°C for 24 h in a stationary incubator. Single colonies were grown for 24 h aerobically in 5 mL of M9 minimal medium supplemented with 5 g/L casamino acids and 0.4% D-galactose at 30 °C and 250 rpm. Each ∆pyr K. oxytoca overnight culture was diluted 1:1000 into fresh medium (5 mL) and incubated aerobically at 30 °C and 250 rpm to mid-exponential growth (OD600 = 0.8). These conditions abrogated both detectable pyrazine and pyrazinone production. At this point, 10 µM of compound in DMSO, were added to the cultures; an equal volume of DMSO was added to cultures without compound as a solvent vehicle control. The cultures were incubated under aerobic conditions with the compounds for one hour at 30 °C and at 250 rpm. After incubation, the cultures were centrifuged, the supernatants were decanted, and the cell pellets were quickly resuspended in 5 mL of Bacterial RNAProtect (Qiagen). The samples were centrifuged again, and the pellets were frozen on dry ice and stored at −80 °C until RNA extraction. The processed cell pellets were thawed on ice and resuspended in 200 µL of lysis buffer (10 mM Tris, 1 mM EDTA, 5 mg/mL lysozyme, 12.5 µg/mL proteinase K [pH 8.0]) and incubated at room temperature for 10 min. The RNA was extracted via the Qiagen RNeasy Mini kit, treated with TURBO DNase in a total volume of 100 µL at room temperature for 30 min, and extracted again using an RNeasy Mini kit. RNA-seq analysis was conducted by the Yale Center for Genome Analysis. Sequences were aligned to the K. oxytoca ATCC 8724 genome (NC_016612.1). Differential expression analysis was performed through DESeq2 and pathway enrichment analysis was performed through the Funage-Pro web-based platform.

Structure (SMILES) | selectivity across the GPCR panel [1] | GPCR activation (heatmap value) (HRH1) | HRH1 dose-response raw reporter signal (Fig. 5b source data) (HRH1; Log(10)Conc (M) -4) | HRH1 dose-response raw reporter signal (Fig. 5b source data) (HRH1; Log(10)Conc (M) -5) | HRH1 dose-response raw reporter signal (Fig. 5b source data) (HRH1; Log(10)Conc (M) -6) | HRH1 dose-response raw reporter signal (Fig. 5b source data) (HRH1; Log(10)Conc (M) -7) | HRH1 dose-response raw reporter signal (Fig. 5b source data) (HRH1; Log(10)Conc (M) -8) | HRH1 dose-response raw reporter signal (Fig. 5b source data) (HRH1; Log(10)Conc (M) -9) | HRH1 dose-response raw reporter signal (Fig. 5b source data) (HRH1; Log(10)Conc (M) -10) | HRH1 dose-response raw reporter signal (Fig. 5b source data) (HRH1; Log(10)Conc (M) -11) | HRH1 dose-response raw reporter signal (Fig. 5b source data) (HRH1; Log(10)Conc (M) -12) | HRH1 dose-response raw reporter signal (Fig. 5b source data) (HRH1; Log(10)Conc (M) -13) | HRH1 dose-response raw reporter signal (Fig. 5b source data) (HRH1; Log(10)Conc (M) -14) | HRH1 dose-response raw reporter signal (Fig. 5b source data) (HRH1; Log(10)Conc (M) -15) | GPCR activation (heatmap value) (HRH3) | HRH3 dose-response raw reporter signal (Fig. 5b source data) (HRH3; Log(10)Conc (M) -4) | HRH3 dose-response raw reporter signal (Fig. 5b source data) (HRH3; Log(10)Conc (M) -5) | HRH3 dose-response raw reporter signal (Fig. 5b source data) (HRH3; Log(10)Conc (M) -6) | HRH3 dose-response raw reporter signal (Fig. 5b source data) (HRH3; Log(10)Conc (M) -7) | HRH3 dose-response raw reporter signal (Fig. 5b source data) (HRH3; Log(10)Conc (M) -8) | also measured
CC(C)Cc1ncc(CCCCNC(=N)N)[nH]c1=O [3-Homo] | selective agonists for histamine receptor H4 | 0.1843 | 49786 and 49898 | 48910 and 46012 | 48701 and 46228 | 46626 and 44830 | 47613 and 46402 | 46045 and 44597 | 46658 and 45508 | 45821 and 45927 | 46189 and 46705 | 47852 and 47304 | 47480 and 47139 | 43822 and 41222 | -0.5013 | 262 and 192 and 404 | 245 and 283 and 383 | 192 and 292 and 463 | 286 and 312 and 310 | 174 and 312 and 371 | HRH3 dose-response raw reporter signal (Fig. 5b source data) (HRH3; Log(10)Conc (M) -9): 227 and 248 and 307; HRH3 dose-response raw reporter signal (Fig. 5b source data) (HRH3; Log(10)Conc (M) -10): 124 and 254 and 251; HRH3 dose-response raw reporter signal (Fig. 5b source data) (HRH3; Log(10)Conc (M) -11): 177 and 189 and 218; HRH3 dose-response raw reporter signal (Fig. 5b source data) (HRH3; Log(10)Conc (M) -12): 112 and 153 and 198; HRH3 dose-response raw reporter signal (Fig. 5b source data) (HRH3; Log(10)Conc (M) -13): 130 and 206 and 248; HRH3 dose-response raw reporter signal (Fig. 5b source data) (HRH3; Log(10)Conc (M) -14): 97 and 162 and 233; HRH3 dose-response raw reporter signal (Fig. 5b source data) (HRH3; Log(10)Conc (M) -15): 150 and 124 (2×)
CC(C)Cc1ncc(CCCNC(=N)N)[nH]c1=O [compound 3] | selective agonists for histamine receptor H4 | 0.7784 | 68060 and 70767 | 51882 and 55219 | 48232 and 47554 | 45272 and 47466 | 44320 and 47843 | 43919 and 48335 | 42578 and 45208 | 43999 and 46555 | 42215 and 46142 | 45172 and 46997 | 41526 and 48557 | 37080 and 42401 | -0.154 | 248 and 233 and 159 | 121 and 136 and 127 | 224 and 147 and 106 | 127 and 100 and 124 | 165 and 200 and 159 | number of differentially regulated genes (∆pyr K. oxytoca; one hour, vs DMSO, Padj < 0.05, abs(log2FC) > 1): 561 genes; effect on enterobactin BGC transcription (∆pyr K. oxytoca; vs DMSO control, RNA-seq): significantly enhanced transcription of the enterobactin BGC; KEGG pathway enrichment neglogP: ABC Transporters, upregulated (∆pyr K. oxytoca; Funage-Pro, 3 upreg): 5.638; KEGG pathway enrichment neglogP: Biosynthesis of siderophore group nonribosomal peptides, upregulated (∆pyr K. oxytoca; Funage-Pro, 3 upreg): 9.097; effect on yersiniabactin BGC transcription (∆pyr K. oxytoca; RNA-seq, pyrazinone 3 compared with pyrazine 7): prominently upregulated the yersiniabactin BGC; HRH3 dose-response raw reporter signal (Fig. 5b source data) (HRH3; Log(10)Conc (M) -9): 144 and 133 and 142; HRH3 dose-response raw reporter signal (Fig. 5b source data) (HRH3; Log(10)Conc (M) -10): 130 and 100 and 103; HRH3 dose-response raw reporter signal (Fig. 5b source data) (HRH3; Log(10)Conc (M) -11): 156 and 177 and 165; HRH3 dose-response raw reporter signal (Fig. 5b source data) (HRH3; Log(10)Conc (M) -12): 103 and 171 and 100; HRH3 dose-response raw reporter signal (Fig. 5b source data) (HRH3; Log(10)Conc (M) -13): 124 and 189 and 112; HRH3 dose-response raw reporter signal (Fig. 5b source data) (HRH3; Log(10)Conc (M) -14): 115 and 200 and 124; HRH3 dose-response raw reporter signal (Fig. 5b source data) (HRH3; Log(10)Conc (M) -15): 106 and 271 and 127
